Legend:
Assay type in all cases: functional
Mus musculus [1] = test: Antileukemic activity of compound against the P-388 lymphocytic leukemic BDF1 male mice at 25(mg/kg)/day, administered intraperitoneally; 10.6/9.66 (Treated/control)
Mus musculus [2] = test: In vivo antileukemic activity against P-388 lymphocytic leukemia in BDF1 male mice at 60 mg/kg/day intraperitoneal dose expressed as T/C
Mus musculus [3] = test: Antileukemic activity of compound against the P-388 lymphocytic leukemic BDF1 male mice at 3(mg/kg)/day, administered intraperitoneally; 13.8/9.66 (Treated/control)
Mus musculus [4] = test: Antileukemic activity of compound against the P-388 lymphocytic leukemic BDF1 male mice at 30(mg/kg)/day, administered intraperitoneally; 16.2/9.66 (Treated/control)
Mus musculus [5] = test: Antileukemic activity of compound against the P-388 lymphocytic leukemic BDF1 male mice at 15(mg/kg)/day, administered intraperitoneally; 25.2/9.66 (Treated/control)
Mus musculus [6] = test: Antileukemic activity of compound against the P-388 lymphocytic leukemic BDF1 male mice at 60 mg/kg/day, administered intraperitoneally; 5.8/9.66 (Treated/control); details: route intraperitoneal
Mus musculus [7] = test: Antileukemic activity of compound against the P-388 lymphocytic leukemic BDF1 male mice at 8(mg/kg)/day, administered intraperitoneally; 13.8/9.66 (Treated/control)
Mus musculus [8] = test: In vivo antileukemic activity against P-388 lymphocytic leukemia in BDF1 male mice at 8(mg/kg)/day intraperitoneal dose expressed as T/C
Mus musculus [9] = test: In vivo antileukemic activity against P-388 lymphocytic leukemia in BDF1 male mice at 15(mg/kg)/day intraperitoneal dose expressed as T/C
Mus musculus [10] = test: In vivo antileukemic activity against P-388 lymphocytic leukemia in BDF1 male mice at 3(mg/kg)/day intraperitoneal dose expressed as T/C
Mus musculus [11] = test: In vivo antileukemic activity against P-388 lymphocytic leukemia in BDF1 male mice at 30(mg/kg)/day intraperitoneal dose expressed as T/C
Mus musculus [12] = test: Antileukemic activity of compound against the P-388 lymphocytic leukemic BDF1 male mice at 15(mg/kg)/day, administered intraperitoneally; 11.4/9.66 (Treated/control)
Mus musculus [13] = test: Antileukemic activity of compound against the P-388 lymphocytic leukemic BDF1 male mice at 25(mg/kg)/day, administered intraperitoneally; 13.3/9.66 (Treated/control)
Mus musculus [14] = test: Antileukemic activity of compound against the P-388 lymphocytic leukemic BDF1 male mice at 8(mg/kg)/day, administered intraperitoneally; […]/[…] (Treated/control)
Mus musculus [15] = test: In vivo antileukemic activity against P-388 lymphocytic leukemia in BDF1 male mice at 25(mg/kg)/day intraperitoneal dose expressed as T/C
Mus musculus [16] = test: Antileukemic activity of compound against the P-388 lymphocytic leukemic BDF1 male mice at 5(mg/kg)/day, administered intraperitoneally; 11.8/9.66 (Treated/control)
Mus musculus [17] = test: Antileukemic activity of compound against the P-388 lymphocytic leukemic BDF1 male mice at 15(mg/kg)/day, administered intraperitoneally; 11.1/9.66 (Treated/control)
Mus musculus [18] = test: In vivo antileukemic activity against P-388 lymphocytic leukemia in BDF1 male mice at 5(mg/kg)/day intraperitoneal dose expressed as T/C
Mus musculus [19] = test: Antileukemic activity of compound against the P-388 lymphocytic leukemic BDF1 male mice at 30(mg/kg)/day, administered intraperitoneally; 15.2/9.66 (Treated/control)
Mus musculus [20] = test: Antileukemic activity of compound against the P-388 lymphocytic leukemic BDF1 male mice at 4(mg/kg)/day, administered intraperitoneally; 11.0/9.66 (Treated/control)
Mus musculus [21] = test: Antileukemic activity of compound against the P-388 lymphocytic leukemic BDF1 male mice at 2(mg/kg)/day, administered intraperitoneally; 11.6/9.66 (Treated/control)
Mus musculus [22] = test: Antileukemic activity of compound against the P-388 lymphocytic leukemic BDF1 male mice at 15(mg/kg)/day, administered intraperitoneally; 13.6/9.66 (Treated/control)
Mus musculus [23] = test: Antileukemic activity of compound against the P-388 lymphocytic leukemic BDF1 male mice at 60 mg/kg/day, administered intraperitoneally; 12.6/9.66 (Treated/control); details: route intraperitoneal
Mus musculus [24] = test: In vivo antileukemic activity against P-388 lymphocytic leukemia in BDF1 male mice at 4(mg/kg)/day intraperitoneal dose expressed as T/C
Mus musculus [25] = test: In vivo antileukemic activity against P-388 lymphocytic leukemia in BDF1 male mice at 2(mg/kg)/day intraperitoneal dose expressed as T/C
Mus musculus [26] = test: Antileukemic activity of compound against the P-388 lymphocytic leukemic BDF1 male mice at 15(mg/kg)/day, administered intraperitoneally; 13.2/9.66 (Treated/control)
Mus musculus [27] = test: Antileukemic activity of compound against the P-388 lymphocytic leukemic BDF1 male mice at 8(mg/kg)/day, administered intraperitoneally; 11.8/9.66 (Treated/control)
Mus musculus [28] = test: Antileukemic activity of compound against the P-388 lymphocytic leukemic BDF1 male mice at 15(mg/kg)/day, administered intraperitoneally (Treated/control)
Mus musculus [29] = test: Antileukemic activity of compound against the P-388 lymphocytic leukemic BDF1 male mice at 30(mg/kg)/day, administered intraperitoneally; 15.4/9.66 (Treated/control)
Mus musculus [30] = test: Antileukemic activity of compound against the P-388 lymphocytic leukemic BDF1 male mice at 15(mg/kg)/day, administered intraperitoneally; 18.7/9.66 (Treated/control)
Mus musculus [31] = test: Antileukemic activity of compound against the P-388 lymphocytic leukemic BDF1 male mice at 60 mg/kg/day, administered intraperitoneally; 12.7/9.66 (Treated/control); details: route intraperitoneal
Mus musculus [32] = test: Antileukemic activity of compound against the P-388 lymphocytic leukemic BDF1 male mice at 8(mg/kg)/day, administered intraperitoneally; 14.0/9.66 (Treated/control)
Mus musculus [33] = test: Antileukemic activity of compound against the P-388 lymphocytic leukemic BDF1 male mice at 15(mg/kg)/day, administered intraperitoneally; 11.0/9.66 (Treated/control)
Mus musculus [34] = test: Antileukemic activity of compound against the P-388 lymphocytic leukemic BDF1 male mice at 3(mg/kg)/day, administered intraperitoneally; 12.9/9.66 (Treated/control)
Mus musculus [35] = test: Antileukemic activity of compound against the P-388 lymphocytic leukemic BDF1 male mice at 25(mg/kg)/day, administered intraperitoneally; 12.3/9.66 (Treated/control)
Mus musculus [36] = test: Antileukemic activity of compound against the P-388 lymphocytic leukemic BDF1 male mice at 60 mg/kg/day, administered intraperitoneally; 3.0/9.66 (Treated/control); details: route intraperitoneal
Mus musculus [37] = test: Antileukemic activity of compound against the P-388 lymphocytic leukemic BDF1 male mice at 8(mg/kg)/day, administered intraperitoneally; 15.7/9.66 (Treated/control)
Mus musculus [38] = test: Antileukemic activity of compound against the P-388 lymphocytic leukemic BDF1 male mice at 15(mg/kg)/day, administered intraperitoneally; 11.9/9.66 (Treated/control)
Mus musculus [39] = test: In vivo antileukemic activity against P-388 Lymphocytic Leukemia in BDF1 male mice at 15(mg/kg)/day intraperitoneal dose expressed as T/C
Mus musculus [40] = test: In vivo antileukemic activity against P-388 Lymphocytic Leukemia in BDF1 male mice at 25(mg/kg)/day intraperitoneal dose expressed as T/C
Mus musculus [41] = test: In vivo antileukemic activity against P-388 Lymphocytic Leukemia in BDF1 male mice at 60 mg/kg/day intraperitoneal dose expressed as T/C
Mus musculus [42] = test: Antileukemic activity of compound against the P-388 lymphocytic leukemic BDF1 male mice at 0.6(mg/kg)/day, administered intraperitoneally; 11/9.66 (Treated/control)
Mus musculus [43] = test: Antileukemic activity of compound against the P-388 lymphocytic leukemic BDF1 male mice at 0.6(mg/kg)/day, administered intraperitoneally; 11.0/9.66 (Treated/control)
Mus musculus [44] = test: In vivo antileukemic activity against P-388 lymphocytic leukemia in BDF1 male mice at 0.6(mg/kg)/day intraperitoneal dose expressed as T/C
Mus musculus [45] = test: Antileukemic activity of compound against the P-388 lymphocytic leukemic BDF1 male mice at 0.6(mg/kg)/day, administered intraperitoneally; 11.6/9.66 (Treated/control)

## C=C1C(=O)O[C@@H]2C[C@@H](C)[C@@H]3CCC(=O)[C@@]3(C)[C@@H](O)[C@H]12
Mus musculus [1]
  Average survival (days): 10.6
Mus musculus [2]
  T/C: 110%

## C=C1C(=O)O[C@@H]2C[C@@H](C)[C@@H]3C=CC(=O)[C@@]3(C)[C@@H](OC(=O)CC(=O)O[C@H]3[C@@H]4C(=C)C(=O)O[C@@H]4C[C@@H](C)[C@@H]4C=CC(=O)[C@]43C)[C@H]12
Mus musculus [3]
  Average survival (days): 13.8
Mus musculus [4]
  Average survival (days): 16.2
Mus musculus [5]
  Average survival (days): 25.2
Mus musculus [6]
  Average survival (days): 5.8
Mus musculus [7]
  Average survival (days): 13.8
Mus musculus [2]
  T/C: 60%
Mus musculus [8]
  T/C: 143%
Mus musculus [9]
  T/C: 261%
Mus musculus [10]
  T/C: 143%
Mus musculus [11]
  T/C: 168%

## C[C@@H]1C[C@H]2OC(=O)[C@@H](C)[C@H]2[C@H](O)[C@]2(C)C(=O)C=C[C@@H]12
Mus musculus [12]
  Average survival (days): 11.4
Mus musculus [13]
  Average survival (days): 13.3
Mus musculus [14]
  Average survival (days): 10.7
Mus musculus [8]
  T/C: 111%
Mus musculus [9]
  T/C: 118%
Mus musculus [15]
  T/C: 138%

## CC1C(=O)O[C@@H]2C[C@@H](C)[C@@H]3CCC(=O)[C@@]3(C)[C@@H](OC(=O)CC(=O)O[C@H]3[C@@H]4C(C)C(=O)O[C@@H]4C[C@@H](C)[C@@H]4CCC(=O)[C@]43C)[C@H]12 (stereo partly drawn)
Mus musculus [16]
  Average survival (days): 11.8
Mus musculus [17]
  Average survival (days): 11.1
Mus musculus [18]
  T/C: 122%
Mus musculus [9]
  T/C: 115%

## C=C1C(=O)O[C@@H]2C[C@@H](C)[C@@H]3CCC(=O)[C@@]3(C)[C@@H](OC(=O)CCC(=O)O[C@H]3[C@@H]4C(=C)C(=O)O[C@@H]4C[C@@H](C)[C@@H]4CCC(=O)[C@]43C)[C@H]12
Mus musculus [19]
  Average survival (days): 15.2
Mus musculus [20]
  Average survival (days): 11
Mus musculus [21]
  Average survival (days): 11.6
Mus musculus [22]
  Average survival (days): 13.6
Mus musculus [23]
  Average survival (days): 12.6
Mus musculus [24]
  T/C: 114%
Mus musculus [2]
  T/C: 130%
Mus musculus [9]
  T/C: 141%
Mus musculus [25]
  T/C: 120%
Mus musculus [11]
  T/C: 157%

## C=C1C(=O)O[C@@H]2C[C@@H](C)[C@@H]3CCC(=O)[C@@]3(C)[C@@H](OC(=O)CC(=O)O[C@H]3[C@@H]4C(=C)C(=O)O[C@@H]4C[C@@H](C)[C@@H]4CCC(=O)[C@]43C)[C@H]12
Mus musculus [26]
  Average survival (days): 13.2
Mus musculus [27]
  Average survival (days): 11.8
Mus musculus [28]
  T/C: 137%
Mus musculus [8]
  T/C: 122%

## C[C@@H]1C[C@H]2OC(=O)[C@@H](C)[C@H]2[C@H](OC(=O)CCC(=O)O[C@H]2[C@@H]3[C@H](C)C(=O)O[C@@H]3C[C@@H](C)[C@@H]3C=CC(=O)[C@]32C)[C@]2(C)C(=O)C=C[C@@H]12
Mus musculus [29]
  Average survival (days): 15.4
Mus musculus [30]
  Average survival (days): 18.7
Mus musculus [31]
  Average survival (days): 12.7
Mus musculus [32]
  Average survival (days): 14
Mus musculus [2]
  T/C: 131%
Mus musculus [8]
  T/C: 145%
Mus musculus [9]
  T/C: 194%
Mus musculus [11]
  T/C: 159%

## C=C1C(=O)O[C@@H]2C[C@@H](C)[C@@H]3CCC(=O)[C@@]3(C)[C@@H](OC(=O)CC(=O)OCC)[C@H]12
Mus musculus [33]
  Average survival (days): 11
Mus musculus [2]
  T/C: 114%

## C=C1C(=O)O[C@@H]2C[C@@H](C)[C@@H]3C=CC(=O)[C@@]3(C)[C@@H](O)[C@H]12 [HELENALIN]
Mus musculus [34]
  Average survival (days): 12.9
Mus musculus [35]
  Average survival (days): 12.3
Mus musculus [36]
  Average survival (days): 3
Mus musculus [37]
  Average survival (days): 15.7
Mus musculus [38]
  Average survival (days): 11.9
Mus musculus [8]
  T/C: 162%
Mus musculus [39]
  T/C: 123%
Mus musculus [40]
  T/C: 127%
Mus musculus [41]
  T/C: 31%
Mus musculus [10]
  T/C: 134%

## CCOC(=O)CC(=O)OCC [MALONIC ACID DIETHYL ESTER]
Mus musculus [42]
  Average survival (days): 11
Mus musculus [2]
  T/C: 114%

## O=C(O)CC(=O)O [MALONIC ACID]
Mus musculus [43]
  Average survival (days): 11
Mus musculus [44]
  T/C: 114%

## CCOC(=O)CCC(=O)OCC [SUCCINIC ACID DIETHYL ESTER]
Mus musculus [45]
  Average survival (days): 11.6
Mus musculus [2]
  T/C: 120%

## O=C(O)CCC(=O)O [SUCCINIC ACID]
Mus musculus [2]
  T/C: 111%

Reference: ChEMBL document CHEMBL1121678, “Antitumor agents. 44. Bis(helenalinyl) esters and related derivatives as novel potent antileukemic agents” (1981)
